The subject of assay [1] is hPSC-derived cardiac progenitors and hPSC-CMs. The assay can be described thus: RT-qPCR gene expression in progenitors or cardiomyocytes. The assay is classed as cell-based, human. The protocol: Frozen cell pellets from progenitors or cardiomyocytes in the 19-9-11 iPS cell line were thawed and RNA isolated using RNeasy spin columns with on-column DNase treatment according to the manufacturer's instructions (Qiagen). 500 ng of isolated RNA was used as template for reverse transcription using Biorad iScript RT supermix according to the manufacturer's instructions. 2.5 ng of derived cDNA was then used as template in qPCR with Taqman® primers bearing FAM-MGB dyes for genes of interest in a 20 μL reaction with Taqman® universal PCR supermix and the manufacturer's recommended cycling conditions (Thermo Fisher Scientific).

For a further assay, the system named is cTnT isoforms. The assay can be described thus: Top-down mass spectrometry of cTnT isoforms (adult to fetal AUC ratio). The assay is classed as cell-based, human. Conditions: DAPT day 3-16. The protocol:
Freshly isolated CMs from the H9-cTnT-GFP (FIG. 1) or 19-9-11 (FIG. 2) hPSC cell lines were washed with Ca^2+-free DPBS and centrifuged at 1,100 g for 5 minutes (min) and the wash solvent was removed. The cells were first homogenized in 50 μl HEPES solution (25 mM HEPES, pH 7.4, 2.5 mM EDTA, 100 mM NaF, 1 mM DTT, 10 mM L-methionine, 1 mM PMSF, 1 mM Na3VO4, protease inhibitor (Abcam) and phosphatase inhibitors). The homogenates were centrifuged at 17,000 g for 20 min and the HEPES extract containing predominately cytosolic proteins was collected. The remaining pellets were homogenized in 40 μl trifluoroacetic acid (TFA) solution (1% TFA, 5 mM tris(2-carboxyethyl)phosphine, 5 mM L-methionine) and centrifuged at 17,000 g for 20 min. The TFA extract containing predominantly the sarcomeric proteins was collected. Bradford protein assays were performed to determine the protein concentration. The sarcomeric protein-enriched extracts were diluted to 100 ng/μl for Liquid chromatography (LC)-MS analysis.
500 ng of each sarcomeric protein-enriched extract was injected to a home-packed reverse phase chromatography (RPC) column (PLRP-S, 10 μm particle size, 1000 A pore size, 500 μm inner diameter, 25 cm long), and the proteins were separated with a gradient of 5-95% mobile phase B (0.1% formic acid in 50:50 acetonitrile:ethanol) (mobile phase A: 0.1% formic acid in H2O) at a constant flowrate of 12 μl/min. The eluting proteins were analyzed by a high-resolution quadrupole-time of flight (q-TOF) mass spectrometer (Impact II, Bruker Daltonics) via electrospray ionization. The mass spectra were collected at a scan rate of 0.5 Hz for all samples being analyzed. Analyses of top-down mass spectra were performed using the vender-specific software DataAnalysis 3.2 (Bruker Daltonics).
Quantification of the sarcomeric protein isoforms was performed as previously described. […] The area under curve (AUC) of the EIC of a specific protein isoform represents the abundance of the selected protein isoform. […] Relative quantification of protein isoform expression was measured by the ratio of the AUCs.

Assay [2] deals with hPSC-CMs. Nature of the assay: Optical action potential measurement (RH237). Conditions: DAPT day 3-16. In kind it is cell-based, human. The protocol: After hPSC-CM dissociation, day 30 to 60 lactate-purified hPSC-CMs from the 19-9-11 cell line were plated as 80 μL drops on areas of cover glass previously coated in drops of Synthemax® working solution of 80 μL (Corning) in the K20/2 dissociation and replating technique described above. After at least two days in K2 medium, the fast-equilibrating voltage-sensitive dye RH237 at 1 μM was added and live cells imaged in the cover glass in a Leica confocal microscope. Video files of individual cells were taken and filtered with the 50th FIR filter at a cutoff frequency of 128 Hz. The resulting action potentials were analyzed for rise time and voltage velocity in MATLAB. Individual cells were considered as replicates for statistical purposes and came from 4 cell preparations.

Assay [3] deals with day 5 cardiac progenitor cells. The assay can be described thus: Propidium iodide cell cycle flow cytometry. In kind it is cell-based, human. Conditions: DAPT with pI:C, day 5. The protocol: Propidium iodide staining was performed on ethanol-fixed cells of the 19-9-11 iPS cell line with a low flow rate and linear mode fluorescence according to a previously published protocol (Darzynkiewicz and Juan, 2001).
In general terms: Flow cytometry measures light scatter and fluorescence of single cells or particles in a stream.

Assay [4] deals with hPSC-CMs. The assay can be described thus: Cardiomyocyte yield and purity in GiWi differentiation. In kind it is cell-based, human. Conditions: DAPT early (day 3-5 or 3-7) and extended (day 3-10 or 3-16). The protocol: To differentiate cardiomyocytes from hPSCs, the small molecule temporal modulation of the Wnt pathway (GiWi) monolayer protocol was used essentially as previously described (Lian et al., 2012). Human embryonic or induced pluripotent stem cells were dissociated with Versene (Thermo Fisher Scientific) for 6 minutes at 37° C., pipetted up and down 40 times, counted with a hemocytometer, spun down at 100×g for 5 minutes, and resuspended and seeded for differentiation at 1.5 million cells per well in 6 well plates or 0.4 million per well in 12 well plates in mTeSR® on stem-cell verified Matrigel® (WiCell) containing 10 μM Y-27632 ROCK-inhibitor (Tocris). After four days in mTeSR® (WiCell), at which point cells grew to 100 percent confluence, medium was switched to RPMI supplemented with B27 supplement not containing insulin (Thermo Fisher Scientific) and containing 12 μM of the Wnt agonist CHIR99021 (Tocris) for exactly 24 hours. Media was then changed to RPMI supplemented with B27 not containing insulin for exactly 48 hours. Then medium was then switched at day 3 to RPMI supplemented with B27 not containing insulin and containing 5 μM IWP2 (Tocris). At day 5, media was switched to RPMI supplemented with B27 not containing insulin for two days. At day 7 and every three days afterward, medium was replaced with RPMI supplemented with B27 containing insulin (Thermo Fisher Scientific). […]

Assay [5] relates to hPSC-CMs. Nature of the assay: Cardiomyocyte yield from dissociated and replated progenitors. In kind it is cell-based, human. Conditions: DAPT. The protocol: For dissociation of day 5 cells (for destructive analyses or live cell replating experiments), progenitors were dissociated with Versene (Thermo Fisher Scientific) for 10 minutes at 37° C., pipetted up and down 40 times, and then neutralized 1:1 v/v versene solution with “K20” medium (DMEM/F12 with 1×NEAA, 1× Glutamine, 0.1 mM (3-mercaptoethanol, and 20% Knockout Serum Replacer by volume, all Thermo Fisher Scientific). For destructive analyses, pellets were made by centrifugation at 1.1×1000 g for 5 minutes, aspiration of medium supernatant, snap-freezing in liquid nitrogen, and kept at −80° C. for until pellet lysis for DNA, protein, or RNA isolation.
For replating of progenitors and microtissue formation, after neutralization and cell counting, 0.8 million day-5 progenitors per well were spun down at 100×g as above and resuspended and plated in 1 mL K20 with 10 μM Y-27632 ROCK-inhibitor (Tocris) into Synthemax® II-SC coated 12 well plates (Corning). Media was then changed daily in 2 mL of “K2” (same formulation as K20 above, but with just 2% Knockout Serum Replacer), and changed daily. Differentiating hPSC-CMs from replated progenitors in this protocol beat by day 8 to 12.

For assay [6], the system named is hPSC-CM sheets from replated progenitors. The assay can be described thus: Video edge detection / beating analysis of cardiomyocyte sheets. The assay is classed as cell-based, human. Conditions: DAPT present day3-day20. The protocol: (§1) For quantification of spatial regularity and graphical presentation of time averaged beating in microtissue from the H9-cTnT-GFP (FIGS. 9A, C) or 19-9-11 (FIG. 9B) cell lines, .avi video files of low-powered (2.5× magnification) fields were recorded at a resolution of 1268×720 and a frame rate of 20/second. These videos were exported into a series of sequential .tiff files using Adobe Premiere, and then analyzed in MATLAB using previously described coding algorithms (Huebsch et al., 2015). Calculations of beat rate (before and after ivrabradine, […] for 2 hours, Sigma) were performed manually in the 19-9-11 cell line and multifocal patterns in untreated progenitor-derived sheets were represented as the average rate of beating for all foci present in a field.

The test system of another assay is H9-TnT-GFP hPSC-CMs. Nature of the assay: cTnT-GFP reporter imaging of hPSC-CMs after NFκB inhibition. The assay is classed as cell-based, human. Conditions: QNZ day 3-5 concurrent with pI:C. The protocol: Antibodies: NFKappaB (Abcam) and phosphorylated IKappaB (Abcam). Antibodies were used at a dilution of 1:1000. NF-κB inhibitor: 40 nM QNZ (Selleckchem).
For a further assay, the system named is NF-κB activation. Conditions: cited from earlier work.
Another assay concerns the target T1, HCN4 channel (Homo sapiens, UniProt Q9Y3Q4).
T1 construct: endogenous in cells; host or cells: replated progenitor-derived cardiomyocyte sheets, 19-9-11 iPS cell line
T1 sequence (Q9Y3Q4 1-1203): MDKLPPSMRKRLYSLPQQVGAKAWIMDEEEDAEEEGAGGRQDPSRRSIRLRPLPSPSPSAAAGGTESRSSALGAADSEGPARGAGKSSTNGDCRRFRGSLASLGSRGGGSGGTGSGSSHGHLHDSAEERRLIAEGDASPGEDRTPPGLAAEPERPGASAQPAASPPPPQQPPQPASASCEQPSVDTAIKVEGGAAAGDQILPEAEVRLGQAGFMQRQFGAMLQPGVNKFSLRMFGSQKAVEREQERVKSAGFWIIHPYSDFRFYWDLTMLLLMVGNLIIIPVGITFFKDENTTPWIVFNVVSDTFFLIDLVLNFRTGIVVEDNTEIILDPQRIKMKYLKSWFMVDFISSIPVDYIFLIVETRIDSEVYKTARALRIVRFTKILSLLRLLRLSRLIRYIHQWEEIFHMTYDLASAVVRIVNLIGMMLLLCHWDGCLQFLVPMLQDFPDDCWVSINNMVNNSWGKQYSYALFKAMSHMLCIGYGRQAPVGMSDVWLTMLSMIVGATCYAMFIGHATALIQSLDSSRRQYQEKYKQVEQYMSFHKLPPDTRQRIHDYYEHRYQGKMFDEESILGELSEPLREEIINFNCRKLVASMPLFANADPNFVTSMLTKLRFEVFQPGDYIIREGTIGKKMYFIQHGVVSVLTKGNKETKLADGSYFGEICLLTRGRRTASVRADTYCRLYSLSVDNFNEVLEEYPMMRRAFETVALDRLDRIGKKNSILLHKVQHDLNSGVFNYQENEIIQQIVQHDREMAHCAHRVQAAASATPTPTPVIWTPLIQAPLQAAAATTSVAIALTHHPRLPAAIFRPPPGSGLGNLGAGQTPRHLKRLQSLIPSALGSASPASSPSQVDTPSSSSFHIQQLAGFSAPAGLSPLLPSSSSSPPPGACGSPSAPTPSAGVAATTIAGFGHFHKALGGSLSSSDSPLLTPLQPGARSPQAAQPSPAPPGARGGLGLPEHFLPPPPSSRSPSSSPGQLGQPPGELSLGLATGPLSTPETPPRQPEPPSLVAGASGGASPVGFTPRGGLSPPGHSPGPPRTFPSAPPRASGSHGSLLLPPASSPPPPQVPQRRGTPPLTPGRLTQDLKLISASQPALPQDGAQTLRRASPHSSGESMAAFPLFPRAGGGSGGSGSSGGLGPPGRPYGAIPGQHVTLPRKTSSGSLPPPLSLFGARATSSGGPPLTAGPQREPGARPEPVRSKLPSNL
The assay can be described thus: Spontaneous beat rate of cardiomyocyte sheets before and after ivrabradine. The assay is classed as cell-based. The protocol:
as §1

`C[C@H](NC(=O)Cc1cc(F)cc(F)c1)C(=O)N[C@H](C(=O)OC(C)(C)C)c1ccccc1` [DAPT]: in assay [1] (DAPT day 3-5 or day 3-16), the “effect on pI:C-increased expression of cardiomyocyte maturation genes (αMHC, cTnI, cardiac actin, ATP5a, RYR2, SERCA)” value is “reversed the increased expression”. In addition, the “effect on pI:C downregulation of cardiac fibroblast genes” value in assay [1] (Notch inhibition (DAPT) with pI:C) is listed as “accentuated”. The “effect on protein isoform change toward adult cTnT 6 and 11 caused by pI:C” value with cTnT isoforms is “abrogated”. In the assay on hPSC-CMs [2], the “effect on increase in optical upstroke velocity (decreased rise time) from primed progenitors” value is “blocked only with DAPT treatment from day 3-16”. For the same compound, the “effect on increased cell cycle activity of primed progenitors” value in assay [3] is “blocked the increased cell cycle activity”. In addition, the “effect on pI:C-increased hPSC-CM yield” value in the assay on hPSC-CMs [4] is “blocked pI:C's effect on hPSC-CM yield”. The “effect on increased yield from replated primed progenitors” value with hPSC-CMs [5] is on record as “blocked this increased yield”. In [6], the “contraction pattern of hPSC-CM sheets from pI:C-primed progenitors” value is “multifocal and disorganized without forming waves of contraction”.

Turning to `Nc1ccc2ncnc(NCCc3ccc(Oc4ccccc4)cc3)c2c1` [QNZ], the “effect on pI:C-increased maturation gene expression” value in assay [1] (day 20 pPSC-CM, QNZ with pI:C) was “reversed”. Besides, the “effect on formation of TnT-GFP positive cardiomyocyte collections after pIC treatment” value in the assay with H9-TnT-GFP hPSC-CMs is on record as “blocked the generation of large collections of TnT-GFP positive cardiomyocytes”. In the assay on NF-κB activation, the “inhibitory activity toward both NF-κB activation and TNF-α production” value is reported as “potent inhibitory activity”.

As to `COc1cc2c(cc1OC)CC(=O)N(CCCN(C)C[C@H]1Cc3cc(OC)c(OC)cc31)CC2` [ivrabradine], the “effect on spontaneous contractions” value on HCN4 channel (cardiomyocyte sheets from primed progenitors, 5 μm for 2 hours) is “blocked the spontaneous contractions”. Moreover, the “effect on beat rate” value at HCN4 channel (cardiomyocyte sheets from untreated progenitors, 5 μM for 2 hours) is “little effect”.

These data come from US11352604B2, “Method of making cardiomyocytes from human pluripotent cells” (Wisconsin Alumni Research Foundation, priority 2016, dated 2022).
